Patent US12697330B2, “Therapeutic methods using vadadustat” (Akebia Therapeutics, Inc., priority 2021, dated 2026)

System: erythropoietin (EPO)
Experiment: Phase 2 study, Main Study: pharmacodynamics, Baseline-Unadjusted serum EPO concentration
Type: in vivo, human
Protocol: PK/PD Endpoints. An exposure-response analysis of vadadustat and PD measures were conducted as deemed appropriate. The PK parameters included (but were not limited to) the following: area under concentration-time curve from dosing to last measurable concentration (AUClast), area under concentration-time curve from dosing to infinity (AUCinf), Cmax, apparent total body clearance (CL/F), apparent volume of distribution (Vd/F), and terminal half-life (t1/2). The PD parameters included (but were not limited to) the following: EPO, reticulocytes, iron, ferritin, TIBC, and hepcidin.
PK population: included all randomized subjects who received study drug (vadadustat or epoetin alfa) and had enough drug concentrations to estimate AUC and Cmax. Analysis of this population was based on the dose amount taken at the date of PK sampling for the vadadustat group.
PD parameters for serum EPO concentration are presented by epoetin alfa stratification for vadadustat treatment groups in Table 7, Table 8a and Table 8b (baseline-unadjusted) and Table 9, Table 10a and Table 10b (baseline-adjusted).

[1] = Vada 150 mg, Week 11, High Epoetin Alfa Stratum >90 to <300 U/kg/week
[2] = Vada 150 mg, Week 11, Low Epoetin Alfa Stratum ≤90 U/kg/week
[3] = Vada 300 mg, Week 1 + 1, High Epoetin Alfa Stratum >90 to <300 U/kg/week
[4] = Vada 300 mg, Week 1 + 1, Low Epoetin Alfa Stratum ≤90 U/kg/week
[5] = Vada 300 mg, Week 1, High Epoetin Alfa Stratum >90 to <300 U/kg/week
[6] = Vada 300 mg, Week 1, Low Epoetin Alfa Stratum ≤90 U/kg/week
[7] = Vada 300 mg, Week 11, High Epoetin Alfa Stratum >90 to <300 U/kg/week
[8] = Vada 300 mg, Week 11, Low Epoetin Alfa Stratum ≤90 U/kg/week
[9] = Vada 300 mg, Week 13, High Epoetin Alfa Stratum >90 to <300 U/kg/week
[10] = Vada 450 mg, Week 1 + 1, High Epoetin Alfa Stratum >90 to <300 U/kg/week
[11] = Vada 450 mg, Week 1 + 1, Low Epoetin Alfa Stratum ≤90 U/kg/week
[12] = Vada 450 mg, Week 1, High Epoetin Alfa Stratum >90 to <300 U/kg/week
[13] = Vada 450 mg, Week 1, Low Epoetin Alfa Stratum ≤90 U/kg/week
[14] = Vada 450 mg, Week 11, High Epoetin Alfa Stratum >90 to <300 U/kg/week
[15] = Vada 450 mg, Week 11, Low Epoetin Alfa Stratum ≤90 U/kg/week
[16] = Vada 450 mg, Week 13, Low Epoetin Alfa Stratum ≤90 U/kg/week
[17] = Vada 600 mg, Week 1 + 1, High Epoetin Alfa Stratum >90 to <300 U/kg/week
[18] = Vada 600 mg, Week 1, High Epoetin Alfa Stratum >90 to <300 U/kg/week
[19] = Vada 600 mg, Week 11, High Epoetin Alfa Stratum >90 to <300 U/kg/week
[20] = Vada 600 mg, Week 11, Low Epoetin Alfa Stratum ≤90 U/kg/week
[21] = Vada 600 mg, Week 13, High Epoetin Alfa Stratum >90 to <300 U/kg/week
[22] = Vada 600 mg, Week 13, Low Epoetin Alfa Stratum ≤90 U/kg/week
[23] = Vada 750 mg, Week 11, High Epoetin Alfa Stratum >90 to <300 U/kg/week

With `O=C(O)CNC(=O)c1ncc(-c2cccc(Cl)c2)cc1O` [Compound 1, {[5-(3-chlorophenyl)-3-hydroxypyridine-2-carbonyl]amino}acetic acid] the “Baseline-Unadjusted serum EPO AUC0-5, Geometric Mean” value [1] was 143.0 µg·h/mL, the “Baseline-Unadjusted serum EPO Cmax, Geometric Mean” value (“Baseline-Unadjusted serum EPO Cmax” for short) [1] was 39.0 µg/mL and the “Baseline-Unadjusted serum EPO Tmax, Median” value [1] was 1.63 h. For the same compound, the “Baseline-Unadjusted serum EPO AUC0-5, Geometric Mean” value [2] was 37.6 µg·h/mL, the “Baseline-Unadjusted serum EPO Cmax” value [2] was 10.7 µg/mL and the “Baseline-Unadjusted serum EPO Tmax, Median” value [2] was 4.78 h. For the same compound, the “Baseline-Unadjusted serum EPO AUC0-5, Geometric Mean” value [3] was 74.9 µg·h/mL, the “Baseline-Unadjusted serum EPO Cmax” value [3] was 20.5 µg/mL and the “Baseline-Unadjusted serum EPO Tmax, Median” value [3] was 2.02 h. The “Baseline-Unadjusted serum EPO AUC0-5, Geometric Mean” value [4] was 65.7 µg·h/mL, the “Baseline-Unadjusted serum EPO Cmax” value [4] was 19.3 µg/mL and the “Baseline-Unadjusted serum EPO Tmax, Median” value [4] was 2.75 h. The “Baseline-Unadjusted serum EPO AUC0-5, Geometric Mean” value [5] was 56.0 µg·h/mL, the “Baseline-Unadjusted serum EPO Cmax” value [5] was 17.5 µg/mL and the “Baseline-Unadjusted serum EPO Tmax, Median” value [5] was 2.00 h. The “Baseline-Unadjusted serum EPO AUC0-5, Geometric Mean” value [6] was 58.5 µg·h/mL, the “Baseline-Unadjusted serum EPO Cmax” value [6] was 17.6 µg/mL and the “Baseline-Unadjusted serum EPO Tmax, Median” value [6] was 4.50 h. For the same compound, the “Baseline-Unadjusted serum EPO AUC0-5, Geometric Mean” value [7] was 84.4 µg·h/mL, the “Baseline-Unadjusted serum EPO Cmax” value [7] was 23.5 µg/mL and the “Baseline-Unadjusted serum EPO Tmax, Median” value [7] was 0.97 h. For the same compound, the “Baseline-Unadjusted serum EPO AUC0-5, Geometric Mean” value [8] was 65.2 µg·h/mL, the “Baseline-Unadjusted serum EPO Cmax” value [8] was 20.0 µg/mL and the “Baseline-Unadjusted serum EPO Tmax, Median” value [8] was 3.29 h. The “Baseline-Unadjusted serum EPO AUC0-5, Geometric Mean” value [9] was 125 µg·h/mL, the “Baseline-Unadjusted serum EPO Cmax” value [9] was 39.2 µg/mL and the “Baseline-Unadjusted serum EPO Tmax, Median” value [9] was 0 h. The “Baseline-Unadjusted serum EPO AUC0-5, Geometric Mean” value [10] was 61.6 µg·h/mL, the “Baseline-Unadjusted serum EPO Cmax” value [10] was 18.1 µg/mL and the “Baseline-Unadjusted serum EPO Tmax, Median” value [10] was 0 h. The “Baseline-Unadjusted serum EPO AUC0-5, Geometric Mean” value [11] was 80.2 µg·h/mL, the “Baseline-Unadjusted serum EPO Cmax” value [11] was 23.9 µg/mL and the “Baseline-Unadjusted serum EPO Tmax, Median” value [11] was 4.51 h. The “Baseline-Unadjusted serum EPO AUC0-5, Geometric Mean” value [12] was 79.9 µg·h/mL, the “Baseline-Unadjusted serum EPO Cmax” value [12] was 23.4 µg/mL and the “Baseline-Unadjusted serum EPO Tmax, Median” value [12] was 4.53 h. For the same compound, the “Baseline-Unadjusted serum EPO AUC0-5, Geometric Mean” value [13] was 76.4 µg·h/mL, the “Baseline-Unadjusted serum EPO Cmax” value [13] was 25.5 µg/mL and the “Baseline-Unadjusted serum EPO Tmax, Median” value [13] was 4.50 h. For the same compound, the “Baseline-Unadjusted serum EPO AUC0-5, Geometric Mean” value [14] was 97.5 µg·h/mL, the “Baseline-Unadjusted serum EPO Cmax” value [14] was 24.9 µg/mL and the “Baseline-Unadjusted serum EPO Tmax, Median” value [14] was 0.88 h. The “Baseline-Unadjusted serum EPO AUC0-5, Geometric Mean” value [15] was 65.1 µg·h/mL, the “Baseline-Unadjusted serum EPO Cmax” value [15] was 17.7 µg/mL and the “Baseline-Unadjusted serum EPO Tmax, Median” value [15] was 2.08 h. For the same compound, the “Baseline-Unadjusted serum EPO AUC0-5, Geometric Mean” value [16] was 88.4 µg·h/mL, the “Baseline-Unadjusted serum EPO Cmax” value [16] was 28.8 µg/mL and the “Baseline-Unadjusted serum EPO Tmax, Median” value [16] was 3.94 h. For the same compound, the “Baseline-Unadjusted serum EPO AUC0-5, Geometric Mean” value [17] was 89.9 µg·h/mL, the “Baseline-Unadjusted serum EPO Cmax” value [17] was 27.2 µg/mL and the “Baseline-Unadjusted serum EPO Tmax, Median” value [17] was 2.47 h. The “Baseline-Unadjusted serum EPO AUC0-5, Geometric Mean” value [18] was 102.0 µg·h/mL, the “Baseline-Unadjusted serum EPO Cmax” value [18] was 33.2 µg/mL and the “Baseline-Unadjusted serum EPO Tmax, Median” value [18] was 0 h. The “Baseline-Unadjusted serum EPO AUC0-5, Geometric Mean” value [19] was 83.2 µg·h/mL, the “Baseline-Unadjusted serum EPO Cmax” value [19] was 23.4 µg/mL and the “Baseline-Unadjusted serum EPO Tmax, Median” value [19] was 0.92 h. The “Baseline-Unadjusted serum EPO AUC0-5, Geometric Mean” value [20] was 53.8 µg·h/mL, the “Baseline-Unadjusted serum EPO Cmax” value [20] was 18.5 µg/mL and the “Baseline-Unadjusted serum EPO Tmax, Median” value [20] was 4.50 h. The “Baseline-Unadjusted serum EPO AUC0-5, Geometric Mean” value [21] was 44.0 µg·h/mL, the “Baseline-Unadjusted serum EPO Cmax” value [21] was 49.9 µg/mL and the “Baseline-Unadjusted serum EPO Tmax, Median” value [21] was 4.63 h. For the same compound, the “Baseline-Unadjusted serum EPO AUC0-5, Geometric Mean” value [22] was 59.4 µg·h/mL, the “Baseline-Unadjusted serum EPO Cmax” value [22] was 20.7 µg/mL and the “Baseline-Unadjusted serum EPO Tmax, Median” value [22] was 7.08 h. For the same compound, the “Baseline-Unadjusted serum EPO AUC0-5, Geometric Mean” value [23] was 84.6 µg·h/mL, the “Baseline-Unadjusted serum EPO Cmax” value [23] was 21.9 µg/mL and the “Baseline-Unadjusted serum EPO Tmax, Median” value [23] was 4.06 h.
